Experimental findings from PubChem BioAssay (NCI) are described below.

Common to all, as to assay: growth of human tumour cells (NCI), 48 h
Assay [1] deals with CCRF-CEM leukemia.
For assay [2], the system named is DMS 273 small cell lung.
The subject of assay [3] is HCT-15 colon.
Assay [4] has as its system K-562 leukemia.
The subject of assay [5] is KM12 colon.
Assay [6] relates to KM20L2 colon.
The test system of assay [7] is M19-MEL melanoma.
Assay [8] concerns SW-620 colon.
Assay [9] has as its system BT-549 breast.
Assay [10] relates to HCC-2998 colon.
Assay [11] relates to MCF7 breast.

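Cells were grown in 96-well plates and exposed to each compound for 48 hours at five concentrations; endpoints were interpolated linearly between bracketing concentrations, or set to the highest concentration if not reached. Abbreviation: GI50, concentration required for 50% inhibition of growth. TGI: total growth inhibition.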 A value given as a limit tells only on which side of the number the result lay.

Take `C=CCN(N=O)C(=O)N(CCCCC(NC(C)=O)C(=O)NCc1ccccc1)Cc1ccccc1` (stereo not drawn): the TGI is 80.4 µM in [1]; greater than 100 µM in assay [2]; greater than 100 µM in assay [3]; greater than 100 µM in assay [4]; greater than 100 µM in [5]; 36.7 µM in assay [6]. The TGI in assay [7] and in assay [8] was greater than 100 µM each time.
Consider `CC(=O)N1N=C(c2ccc(Nc3nc(Nc4ccc(F)cc4)nc(Nc4ccc(Cl)cc4)n3)cc2)CC1c1ccc(N(C)C)cc1` (stereo not drawn), for which the GI50 in [9] is 5.05 µM; in [1] it was 5.23 µM; in assay [10] it was 2.26 µM; in [3], 2.64 µM; in assay [4], greater than 32.4 µM; in assay [5] it was 6.02 µM. For the same compound, the GI50 in assay [11] was 3.94 µM; in assay [8] it was 13.3 µM. Further, the TGI is 17.5 µM in [9]; greater than 100 µM in assay [1]; 7.45 µM in assay [10]; 30.5 µM in assay [3]; greater than 81.9 µM in assay [4]; 20.9 µM in [5]. The TGI came to 26.9 µM in assay [11] and 56.8 µM in assay [8].
`N=C1N=C(N)S/C1=C\c1ccc2ncccc2c1`: the GI50 in assay [9], in [1], in assay [10], in [3], in assay [4] and in assay [5] was greater than 25 µM throughout. Also, the GI50 in [11] and in assay [8] was greater than 25 µM each time. The TGI in assay [9], in assay [1], in [10], in assay [3], in assay [4] and in assay [5] was greater than 25 µM each time. The TGI in assay [11] and in assay [8] was greater than 25 µM each time.
As to `C/C(=C1/N=C(c2ccccc2)OC1=O)c1ccccc1`, the TGI in [9], in assay [1], in assay [10], in assay [3], in [4] and in assay [5] was greater than 100 µM in each case. The TGI in [11] and in assay [8] was greater than 100 µM in each case.
With `COc1cc2oc(-c3cccc(C(=O)Nc4ccc(C)cc4)c3)cc(=O)c2c(OC)c1OC`, the GI50 is 1.71 µM in assay [9]; 4.38 µM in assay [1]; 3.53 µM in assay [10]; 1.96 µM in [3]; 3.4 µM in assay [4]; 3.66 µM in assay [5]. The GI50 in assay [11] was 2.53 µM; in assay [8] it was 4.73 µM. In addition, the TGI in assay [9] is 54.5 µM; in [1], greater than 100 µM; in assay [10] it was 17.8 µM; in assay [3] it was greater than 100 µM; in assay [4] it was greater than 100 µM; in assay [5], greater than 100 µM. Further, the TGI in [11] and in [8] was greater than 100 µM in each case.
For `CC(C)C[C@H]1C(=O)N2CCC[C@H]2[C@]2(O)O[C@](NC(=O)[C@@H]3C=C4c5cccc6[nH]c(Br)c(c56)C[C@H]4N(C)C3)(C(C)C)C(=O)N12`, the TGI in assay [9], in assay [1], in assay [10], in [3], in assay [4] and in assay [5] was greater than 100 µM in each case. Moreover, the TGI in assay [11] and in assay [8] was greater than 100 µM throughout.
`CC(C)c1ccc(/C=N/N=C(N)N)cc1`: the GI50 in [9] was 13.2 µM; in assay [1], 4.33 µM; in assay [10], 2.04 µM; in assay [3] it was 4.19 µM; in assay [4], 4.16 µM; in [5], 3.3 µM. Further, the GI50 is 2.76 µM in assay [11] and 2.9 µM in assay [8]. Also, the TGI in [9] is 30 µM; in assay [1], 47.5 µM; in [10] it was 4.78 µM; in assay [3], 16.8 µM; in assay [4], 16.2 µM; in assay [5], 11.6 µM. Further, the TGI in assay [11] was determined as 10.1 µM; in assay [8], 11.6 µM.
As to `Cc1cc(S(=O)(=O)Nc2nc3ccccc3[nH]2)c(SCc2ccccc2)cc1Cl`, the GI50 in assay [9] was greater than 100 µM; in [1] it was 12.3 µM; in assay [10], 21.4 µM; in assay [3] it was greater than 100 µM; in assay [4], 66.3 µM; in assay [5], 40.4 µM. Besides, the GI50 in assay [11] and in assay [8] was greater than 100 µM each time. In addition, the TGI was greater than 100 µM in assay [9]; 24.8 µM in [1]; greater than 100 µM in assay [10]; greater than 100 µM in assay [3]; greater than 100 µM in assay [4]; greater than 100 µM in [5]. The TGI in assay [11] and in assay [8] was greater than 100 µM each time.
Turning to `COc1ccc(C2CC(c3cccc(OC)c3)=NN2C(=O)c2cc(OC)c(OC)c(OC)c2)cc1` (stereo not drawn), the GI50 in assay [9] is 2.05 µM; in assay [1], 1.84 µM; in [10], 4.27 µM; in assay [3], 1.07 µM; in assay [4], 0.431 µM; in [5], 0.717 µM. Moreover, the GI50 was 0.367 µM in assay [11] and 0.881 µM in assay [8]. The TGI is greater than 100 µM in assay [9]; greater than 29.6 µM in [1]; greater than 100 µM in assay [10]; greater than 100 µM in assay [3]; greater than 20.5 µM in assay [4]; greater than 100 µM in assay [5]. Further, the TGI in assay [11] and in [8] was greater than 100 µM throughout.
For `Cc1nnc2n1N=C(c1ccc(-c3ccc([N+](=O)[O-])cc3)o1)CS2`, the TGI in assay [2], in [10], in assay [3], in assay [4], in assay [5] and in assay [6] was greater than 100 µM each time. The TGI in [7] and in assay [8] was greater than 100 µM in each case.
